Assay results published in patent US11103474B2, “Pharmaceutical parenteral formulation containing carglumic acid” (RECORDATI INDUSTRIA CHIMICA E FARMACEUTICA S.P.A., priority 2016, dated 2021).

Assay: Preliminary solubility trials (stability of carglumic acid solutions with NaOH, phosphate or HCl)
Type: physicochemical
Description: Preliminary solubility trials have been performed using carglumic acid solutions buffered at pH from 5.0 to 5.7 with NaOH (0.5 M) or phosphate; the test were not successful since the solutions were not stable and gave an unknown degradation product (with molecular ion at 159 [m+H]+ detected in HPLC-mass-spectrometry) not present in the solution of carglumic acid in water.

In the case of `NC(=O)N[C@@H](CCC(=O)O)C(=O)O` [carglumic acid, Carglumic acid], the stability of solution (buffered at pH from 5.0 to 5.7 with NaOH (0.5 M) or phosphate, unknown degradation product formed) is reported as “not stable” and the stability of solution (in HCl 0.5 M, up to 24 hours, two known impurities above the accepted limits) is reported as “did not result stable”.
